Results taken from EP4000618A1, “COMBINATION OF AT LEAST ONE INHIBITOR OF THE XC TRANSPORTER WITH AT LEAST ONE INHIBITOR OF MEMBRANE-BOUND CATALASE FOR INHIBITING AND / OR INACTIVATING TUMOR CELLS” (Motz, Manfred, priority 2020, dated 2022).
“Also recorded” adds a separate entry of the source. Counter-ions that a name gives are not always drawn.

Tested on: humanen Magenkarzinomzellen (MKN-45)
Assay: Apoptosis induction in MKN-45 tumour cells after catalase inhibition; percentage of cells with apoptosis features counted by phase-contrast microscopy
Type: cell-based, human
Details: for Effect on the consequence of the 3-AT pretreatment (no lag phase, independence from aquaporins): inhibitor present during 1 h pretreatment with 3-AT (Figur 3B)
Description: Erfindungsgemäß wurden verschiedene Experimente mit humanen Magenkarzinomzellen (MKN-45) durchgeführt. Die experimentellen Einzelheiten der Versuche sind in der Literaturstelle Heinzelmann und Bauer, Biol. Chem. (2010) 391, S. 675-693 detailliert beschrieben. Auf die experimentelle Ausgestaltung wird hiermit ausdrücklich verwiesen.
In der Literaturstelle Heinzelmann und Bauer sind die Herkunft der jeweiligen Zellen, deren Anzuchtbedingungen, die Apoptoseinduktion und deren Messung beschrieben. Die membranständige Katalase wurde mit 3-Aminotriazol (3-AT) gehemmt. Spezifische Inhibitoren, die die Differenzierung zwischen dem reaktiven NO/Peroxynitritweg und dem HOCI-Weg erlauben, sind weiterhin in der Literaturstelle Heinzelmann und Bauer (a.a.o.) offenbart. Bei den einzelnen Auswertungen wurde die Apoptoseinduktion über die Quantifizierung des Prozentsatzes derjenigen Zellen bestimmt, die die Apoptosemerkmale Kernkondensation, Kernfragmentation und/oder Membrane-Blebbing aufwiesen. Die Quantifizierung erfolgte jeweils mit Hilfe eines Phasenkontrast-Umkehrmikroskops.

[1] = inhibitor added to 3-AT, higher 3-AT concentration range (Figur 1A, 1B)
[2] = inhibitor added to 3-AT, whole 3-AT concentration range (Figur 1A, 1C)

NCCS(=O)(=O)O [Taurin]
Hemmung der Apoptoseinduktion (Taurin added two hours after 3-AT (Figur 2B)): sofortigen Abbruch der Apoptoseinduktion; also recorded: erfolgreichen und sofortigen Hemmung der Apoptoseinduktion
Steigerung der Apoptose (cells not pretreated, range 0.7 und 6 mM 3-AT (Figur 6A)): Steigerung der Apoptose
Hemmung der Apoptoseinduktion [1]: im höheren Konzentrationsbereich; also recorded: spezifisch Apoptose hemmen, die durch höhere Konzentrationen an 3-AT induziert wurde

OC[C@@H](O)[C@@H](O)[C@H](O)[C@H](O)CO [Mannitol]
Hemmung der Apoptoseinduktion [2]: gehemmt; also recorded: Hemmung der Apoptoseinduktion

COc1cccc(C=NCCN=Cc2cccc(OC)c2[O-])c1[O-].[Cl-].[Mn+3] [EUK-134]
Hemmung der Apoptoseinduktion [1]: nur in diesem Bereich zur Hemmung; also recorded: hemmt nur die durch höhere Konzentrationen an 3-AT induzierte Apoptose
Effect on the consequence of the 3-AT pretreatment (no lag phase, independence from aquaporins): führt die Vorbehandlung nicht zu der unter A gezeigten Konsequenz

O=C(O)c1cc(/N=N/c2ccc(S(=O)(=O)Nc3ccccn3)cc2)ccc1O [Sulfasalazin]
Abhängigkeit der Apoptoseinduktion von der Aquaporinwirkung (Hemmbarkeit durch Silberionen) (14 h pretreatment with rising concentrations of Sulfasalazin, then 3-AT (Figur 4B-D)): ersetzt graduell die Wirkung der Aquaporine; also recorded: in steigendem Umfang von der Aktivität der Aquaporine unabhängig
Synergieeffekt mit 3-AT (Sulfasalazin and 3-AT given at the same time (Figur 5B)): bleibt dieser Synergieeffekt aus; also recorded: nicht ausreichend für die Induktion eines Synergieeffekts
Absenkung der 3-AT-Konzentration bei gleichbleibendem Effekt (after Sulfasalazin pretreatment (Figur 4)): ca. zehnfacher Absenkung
Synergieeffekt mit 3-AT (pretreatment of the cells with Sulfasalazin, then 3-AT (Figur 5A, 4A vs 4D)): konzentrationsabhängig zu einem Synergieeffekt; also recorded: Synergieeffekt zwischen 3-AT- und Sulfasalazinwirkung
Abhängigkeit von der Aquaporinwirkung (pretreatment with 100 µM Sulfasalazin, then 3-AT (Figur 4D)): vollständig aufgehoben
Signalweg der Apoptoseinduktion beim Synergieeffekt (pretreatment with 100 µM Sulfasalazin, then 3-AT, profile with FeTPPS and Taurin (Figur 6B)): vollständig durch den NO/Peroxynitritweg bedingt; also recorded: lediglich zu einer Verstärkung des NO/Peroxynitritwegs geführt

COC(=O)[C@@H](N)CCCNC(=N)N[N+](=O)[O-] [L-NAME, N-omega-nitro-L-arginine methylester hydrochloride]
Hemmung der Apoptoseinduktion (inhibitor added to 3-AT, low 3-AT concentration range (Figur 1B), hydrochloride): zur Hemmung; also recorded: Hemmung der Apoptose im niedrigeren 3-AT Konzentrationsbereich

[Ag+] [Silberionen]
Hemmung der Apoptoseinduktion (1 h preincubation with 100 mM 3-AT, wash, 3-AT again with Silberionen (Figur 3A)): nicht mehr durch Silberionen zu hemmen
Hemmung der Apoptoseinduktion (1 h preincubation without 3-AT, wash, then 3-AT with Silberionen (Figur 3A)): daher durch Silberionen zu hemmen
Hemmung der Apoptoseinduktion (Silberionen 5 µM added before 3-AT 100 mM (Figur 2A)): blockiert die Apoptoseinduktion fast vollständig; also recorded: nur dann vollständig wirkt
Hemmung der Apoptoseinduktion (Silberionen 5 µM added later, after 3-AT 100 mM (Figur 2A)): wirken schwächer oder gar nicht
Hemmung der Apoptoseinduktion (Silberionen 5 µM added to 3-AT concentration series (Figur 1D, 4A)): hemmen die Apoptose vollständig; also recorded: durch Silberionen gehemmt; also recorded: blockieren die Apoptoseinduktion vollständig

NCCc1ccc(S(=O)(=O)F)cc1 [AEBSF, 4-(2-Aminoethyl)benzenesulfonyl fluoride]
Hemmung der Apoptoseinduktion [2]: gehemmt; also recorded: vollständigen Hemmung der Apoptose
Effect on the consequence of the 3-AT pretreatment (no lag phase, independence from aquaporins): führt die Vorbehandlung nicht zu der unter A gezeigten Konsequenz

Cl.O=S(=O)([O-])c1ccc(-c2c3nc(c(-c4ccc(S(=O)(=O)O)cc4)c4ccc([nH]4)c(-c4ccc(S(=O)(=O)O)cc4)c4nc(c(-c5ccc(S(=O)(=O)O)cc5)c5ccc2[nH]5)C=C4)C=C3)cc1.[Fe] [FeTPPS, 5-, 10-, 15-, 20-Tetrakis(4-sulfonatophenyl)porphyrinato iron(III) chloride]
Hemmung der Apoptoseinduktion (cells not pretreated, range 3-6 nM 3-AT (Figur 6A)): geringfügigen Anteil des NO/Peroxynitritwegs
Hemmung der Apoptoseinduktion (inhibitor added to 3-AT, low 3-AT concentration range (Figur 1B)): zur Hemmung; also recorded: Hemmung der Apoptose im niedrigeren 3-AT Konzentrationsbereich
